From article PMC4014704, “β-Boomerang Antimicrobial and Antiendotoxic Peptides: Lipidation and Disulfide Bond Effects on Activity and Structure” (Pharmaceuticals, 2014)
Converted amounts (≈) assume the structure as drawn. Peptide text beside a SMILES is read from it.

Columns and labels:
E. coli cells = experiment: Zeta potential measurements; format: cell-based
Method: Zeta potential measurements: The zeta potential measurements were carried out on a Zetasizer Nano ZS (Malvern Instruments, Worcestershire, UK) equipped with a 633 nm He lasers. Mid-log phase grown bacterial cells were diluted to an OD600 of 0.2 and a basal measurement in the absence of peptides was acquired in disposable zeta cells with gold electrodes. Increasing concentrations of the designed peptides were then added to the cells and the measurements were made. A total of five measurements of 100 runs each were carried out for all dilutions.

FITC-LPS micelles = experiment: Dissociation of FITC-LPS; design: species or system E. coli 055:B5; conditions: 500 nM FITC-LPS, increasing peptide, excitation 480 nm, emission 515 nm
Method: Dissociation of FITC-LPS: LPS molecules form micellar aggregates in water. The competency of the peptides to dissociate LPS micelles were studied using FITC conjugated LPS. In this method, blank fluorescence of 500 nM of FITC-LPS was recorded followed by the addition of increasing concentrations of peptides. The excitation was set at 480 nm and emission at 500–550 nm.

LPS micelles [1] = experiment: Dynamic light scattering of LPS micelles; design: species or system E. coli 0111:B4; conditions: DLS, 0.5 μM LPS, LPS:peptide 1:4; LPS alone 814 nm
Method: Dynamic light scattering measurements: LPS forms micelles of large sizes, which with the addition of increasing concentration of peptides, dissociates to smaller sizes. DLS measurements were made for 0.5 μM LPS and then with LPS: Peptide ratios of 1:2 and 1:4. The scattering was measured with Dynamic Light Scattering software provided with the instrument (Brookhaven Instruments Corp., Holtsville, NY, USA) and the scattering data was analyzed with CONTIN method.

[2] = test system: outer membrane of E. coli cells; experiment: Outer membrane permeability assay (NPN dye); format: cell-based; conditions: E. coli OD600 0.5, 10 μM NPN
Method: Outer membrane permeability assay: Outer membrane of Gram bacteria acts as permeability barrier for hydrophobic antibacterial compounds. […] E. coli cells were grown to mid logarithmic phase and diluted to an OD600nm of 0.5 in 10 mM sodium phosphate buffer, pH 7.0. The excitation was set at 350 nm and emission at 390–450 nm. NPN was added to the diluted cells at the concentration of 10 μM and a basal fluorescence was recorded followed by the addition of increasing concentration of peptides.

[3] = aqueous solution for NMR
Text: (§1) In addition, incorporation of disulfide bridges in AMPs may stabilize conformations and enhance cationicity and hydrophobicity required for enhanced activity. […] Residue Ile10 was chosen for Cys replacement since this residue is located at the exposed face of the β-strand of the YI12WF structure (Figure 1).
The solution conformations of YI13C, C4YI13C peptides were examined in free solution using two-dimensional ^1H-^1H NOESY and TOCSY experiments.

LPS micelles [4] = experiment: Isothermal titration calorimetry; format: binding, E. coli 0111:B4; conditions: lack of saturation
Method: Isothermal titration calorimetry: Binding of designed peptides with LPS micelles was determined using isothermal titration calorimetry in VP-ITC micro calorimeter (Microcal Inc, Northampton, MA, USA). Peptides and LPS samples were dissolved in 10 mM phosphate buffer, pH 7.0 and filtered. LPS at a concentration of 10 μM was loaded into the sample cell and the reference cell was filled with the same buffer. The syringe was filled with 1mM peptide solution. Typically 30 injections of 3.5 μL of the peptides were made into the sample cell at 25 °C. Sample cell was stirred continuously at 300 rpm. Raw data were obtained and analyzed using single site binding model in Microcal Origin 5.0 software. Association constant (Ka) and enthalpy change (ΔH) were directly determined from ITC profiles. Dissociation constant was calculated from Kd = 1/Ka. ΔG and TΔS were estimated from the fundamental equations of thermodynamics, ΔG = −RTlnKa and TΔS = (ΔH − ΔG), respectively.

[5] = Reverse phase HPLC retention time (hydrophobicity); format: physicochemical; design: unit not given beside the values; conditions: C18 column (300 Å pore size, 5 μm particle size), linear gradient acetonitrile/water, higher Rt taken as more hydrophobic
Text: Materials: LPS of E. coli 0111:B4, FITC-LPS of E. coli 055:B5, acrylamide, NPN (1-N-phenylnaphthylamine) were purchased from Sigma (Saint Louis, MO, USA). All bacterial strains were obtained from the American Type Culture Collection (Manassas, VA, USA). Designed peptides were synthesized commercially by GL Biochem (Shanghai, China) and further purified by a reverse phase HPLC (Waters), using a C18 column (300 Å pore size, 5 μm particle size). The dimeric variants of β-boomerang lipopeptides were treated with 20% DMSO for 18 hours and the oxidized peptides were further purified by HPLC. A linear gradient of acetonitrile/water mixture was used for the purification and fractions eluting with higher purity were collected and freeze-dried.
as §1

red blood cells = conditions: mouse RBC ~4% (v/v) in PBS pH 7.0, 1 h, OD540, 1% Triton-X = positive control
Method: Hemolytic assay: Blood was collected from healthy mice in a tube containing EDTA. Cells with EDTA were centrifuged at 800 g for 10 min, to remove the buffy plasma coat layer, and washed three times in PBS (35 mM phosphate buffer, 150 mM NaCl, pH 7.0). 50 μL of RBC solution was added to equal volume of two-fold dilution of the peptides in 96-well micro titer plates and incubated for one hour. The final erythrocyte concentration estimated to be ~4% (v/v). After one hour, the mixture was centrifuged and the release of hemoglobin in the supernatant was determined spectrophotometrically at OD540. Buffer and 1% Triton-X in the place of peptides used as negative control and positive control, respectively. The percentage of hemolysis was calculated using the following method: Percentage of hemolysis = (OD peptide − OD buffer)/(OD Triton-X-OD buffer) × 100

E.faecalis (ATCC 29212) = experiment: Antibacterial assay (MIC); format: cell-based; conditions: 10 mM phosphate buffer pH 6.8, 3 h 37 °C, streaked on Mueller-Hinton agar
Method: (§2) Antibacterial assay: The minimum inhibitory concentration (MIC) of the designed peptides was determined against four Gram-negative strains (E. coli, P. aeruginosa ATCC 27853, K. pneumoniae ATCC 13883, S. enterica ATCC 14028) and four Gram-positive strains (B. subtilis, S. aureus ATCC 25923, S. pyogenes ATCC 19615 and E. faecalis ATCC 29212). In brief, mid logarithmic phase of overnight grown bacterial cultures were obtained in LB broth and adjusted to OD600 0.2 in 10 mM phosphate buffer, pH 6.8. About 50 μL of these cells were added to equal volume of designed peptides at two-fold dilutions in 96-well sterile polypropylene plates followed by incubation for 3hrs at 37 °C. Aliquots of the above titrated wells were streaked onto Mueller-Hinton agar plates and the concentration at which no visible bacterial growth was observed considered as the MIC value of the peptide.

B.subtilis (Lab strain) = experiment: Antibacterial assay (MIC); format: cell-based; conditions: 10 mM phosphate buffer pH 6.8, 3 h 37 °C, streaked on Mueller-Hinton agar
Method: as §2

S.pyogenes (ATCC 19615) = experiment: Antibacterial assay (MIC); format: cell-based; conditions: 10 mM phosphate buffer pH 6.8, 3 h 37 °C, streaked on Mueller-Hinton agar
Method: as §2

S.aureus (ATCC 25923) = experiment: Antibacterial assay (MIC); format: cell-based; conditions: 10 mM phosphate buffer pH 6.8, 3 h 37 °C, streaked on Mueller-Hinton agar
Method: as §2

[6] = test system: P.aeruginosa (ATCC 27853); experiment: Antibacterial assay (MIC); format: cell-based; conditions: 10 mM phosphate buffer pH 6.8, 3 h 37 °C, streaked on Mueller-Hinton agar
Method: as §2

E.coli (Lab strain) = experiment: Antibacterial assay (MIC); format: cell-based; conditions: 10 mM phosphate buffer pH 6.8, 3 h 37 °C, streaked on Mueller-Hinton agar, no visible growth
Method: as §2

[7] = test system: K. pneumoniae (ATCC 13883); experiment: Antibacterial assay (MIC); format: cell-based; conditions: 10 mM phosphate buffer pH 6.8, 3 h 37 °C, streaked on Mueller-Hinton agar
Method: as §2

S.enterica (ATCC 14028) = experiment: Antibacterial assay (MIC); format: cell-based; conditions: 10 mM phosphate buffer pH 6.8, 3 h 37 °C, streaked on Mueller-Hinton agar
Method: as §2

LPS (endotoxin) = experiment: LPS neutralization assay (chromogenic LAL kit); format: biochemical
Method: LPS neutralization assay: LAL chromogenic kit (QCL 100 Cambrex, Walkersville, MD, USA) was used to determine endotoxin neutralization of the designed peptides following protocol of the vendor. LPS in Gram negative bacteria activates a proenzyme in limulus amoebocyte lysate (LAL). This activated enzyme in turn catalytically release a colored product pNA from the colorless substrate Ac-Ile-Glu-Ala-Arg-pNA which is detected spectrophotometrically at OD410. All peptides were dissolved in the pyrogen-free water supplied with the kit and pH was adjusted to 7.0 with 1N HCl or 1N NaOH (which is prepared in pyrogen-free water). The increasing concentrations of the peptides were incubated with three different concentrations of endotoxins, i.e., at 0.4, 0.8 and 1.0 endotoxin units (EU) in a total volume of 50 μL for 30 minutes at 37 °C. About 50 μL of LAL reagent was added to peptide-LPS complex and further incubated for 10 minutes followed by addition of 100 μL substrate. After incubation of six minutes for the reaction, the release of colored product was recorded at OD410. Water in the place of peptides served as negative control (blank) that is considered as 0% inhibition and percentage of LPS neutralization was calculated by: % of LPS neutralization = [(OD blank − OD peptide)/OD blank] × 100

SMILES	Change in zeta potential (in words) (E. coli cells; increasing peptide concentrations, E. coli cells)	FITC fluorescence intensity / dissociation of FITC-LPS (in words) (FITC-LPS micelles)	Diameter of LPS aggregates (LPS micelles [1]) [nm]	NPN fluorescence intensity with increasing peptide (in words) [2]	Solubility for NMR studies (in words) [3]	Interaction with LPS by ITC (in words) (LPS micelles [4])	Retention time (Rt) [5]	Zeta potential of E. coli cells after peptide addition (E. coli cells; 4 μM peptide, cells without peptide about −20.0 mV, OD600 0.2)	% of hemolysis at 50 μM peptide concentration (red blood cells) [%]	Minimum inhibitory concentration (MIC) (E.faecalis (ATCC 29212)) [µM]	Minimum inhibitory concentration (MIC) (B.subtilis (Lab strain)) [µM]	Minimum inhibitory concentration (MIC) (S.pyogenes (ATCC 19615)) [µM]	Minimum inhibitory concentration (MIC) (S.aureus (ATCC 25923)) [µM]	Minimum inhibitory concentration (MIC) [6] [µM]	Minimum inhibitory concentration (MIC) (E.coli (Lab strain)) [µM]	Minimum inhibitory concentration (MIC) [7] [µM]	Minimum inhibitory concentration (MIC) (S.enterica (ATCC 14028)) [µM]	LPS neutralization (LPS (endotoxin); 0.4 EU endotoxin, 1.0 μM peptide, 30 min 37 °C, OD410)	LPS neutralization (LPS (endotoxin); at increased peptide concentration, different LPS concentrations (0.4, 0.8, 1.0 EU), dose dependent) [%]
CCCCCCCC(=O)N[C@@H](Cc1ccc(O)cc1)C(=O)N[C@H](C(=O)N[C@@H](CC(C)C)C(=O)N[C@@H](C)C(=O)N[C@@H](CCCCN)C(=O)N[C@@H](CCCNC(=N)N)C(=O)N[C@@H](CCCCN)C(=O)N[C@@H](CCCNC(=N)N)C(=O)N[C@@H](CCCCN)C(=O)N[C@@H](C)C(=O)N[C@@H](CSSC[C@H](NC(=O)[C@H](C)NC(=O)[C@H](CCCCN)NC(=O)[C@H](CCCNC(=N)N)NC(=O)[C@H](CCCCN)NC(=O)[C@H](CCCNC(=N)N)NC(=O)[C@H](CCCCN)NC(=O)[C@H](C)NC(=O)[C@H](CC(C)C)NC(=O)[C@@H](NC(=O)[C@H](Cc1ccc(O)cc1)NC(=O)CCCCCCC)C(C)C)C(=O)N[C@@H](Cc1ccccc1)C(=O)N[C@H](C(N)=O)[C@@H](C)CC)C(=O)N[C@@H](Cc1ccccc1)C(=O)N[C@H](C(N)=O)[C@@H](C)CC)C(C)C [C8YI13CAA] (HELM PEPTIDE1{[CCCCCCCC(=O)[*:2]].Y.V.L.A.K.R.K.R.K.A.C.F.I.[am]}|PEPTIDE2{[CCCCCCCC(=O)[*:2]].Y.V.L.A.K.R.K.R.K.A.C.F.I.[am]}$PEPTIDE1,PEPTIDE2,12:R3-12:R3$$$V2.0; N-terminus and C-terminus assumed)	did not show any detectable change in zeta potential	remained unchanged	630	no marked increase in intensity	limited solubility	interacted weakly with LPS	32.38	–	–	–	–	–	–	–	–	–	–	–	–
CCCCCCCC(=O)N[C@@H](Cc1ccc(O)cc1)C(=O)N[C@H](C(=O)N[C@@H](CC(C)C)C(=O)N[C@@H](Cc1c[nH]c2ccccc12)C(=O)N[C@@H](CCCCN)C(=O)N[C@@H](CCCNC(=N)N)C(=O)N[C@@H](CCCCN)C(=O)N[C@@H](CCCNC(=N)N)C(=O)N[C@@H](CCCCN)C(=O)N[C@@H](Cc1ccccc1)C(=O)N[C@@H](CSSC[C@H](NC(=O)[C@H](Cc1ccccc1)NC(=O)[C@H](CCCCN)NC(=O)[C@H](CCCNC(=N)N)NC(=O)[C@H](CCCCN)NC(=O)[C@H](CCCNC(=N)N)NC(=O)[C@H](CCCCN)NC(=O)[C@H](Cc1c[nH]c2ccccc12)NC(=O)[C@H](CC(C)C)NC(=O)[C@@H](NC(=O)[C@H](Cc1ccc(O)cc1)NC(=O)CCCCCCC)C(C)C)C(=O)N[C@@H](Cc1ccccc1)C(=O)N[C@H](C(N)=O)[C@@H](C)CC)C(=O)N[C@@H](Cc1ccccc1)C(=O)N[C@H](C(N)=O)[C@@H](C)CC)C(C)C [C8YI13C] (HELM PEPTIDE1{[CCCCCCCC(=O)[*:2]].Y.V.L.W.K.R.K.R.K.F.C.F.I.[am]}|PEPTIDE2{[CCCCCCCC(=O)[*:2]].Y.V.L.W.K.R.K.R.K.F.C.F.I.[am]}$PEPTIDE1,PEPTIDE2,12:R3-12:R3$$$V2.0)	–	–	385	continues to increase	limited solubility	–	37.40	~+24.0 mV	21.5	4 (≈ 15.3 µg/mL)	5 (≈ 19.1 µg/mL)	50 (≈ 191 µg/mL)	5 (≈ 19.1 µg/mL)	5 (≈ 19.1 µg/mL)	3 (≈ 11.5 µg/mL)	12 (≈ 45.9 µg/mL)	50 (≈ 191 µg/mL)	around 60%	80
